# According to patent publication US6664285B1, “Use of cell membrane penetrating indigoid bisindole derivatives” (priority 1999, dated 2003):
# How the values were obtained:
# [1] = test system: MCF7X (mammary); assay: Colony-forming assay; format: cell-based, human
# [2] = test system: LXFL529 (lung large-cell); assay: Colony-forming assay; format: cell-based, human
# [3] = test system: PAXF736 (pancreatic); assay: Colony-forming assay; format: cell-based, human
# [4] = test system: mammary carcinoma line MCF-7; assay: Tumor cell growth inhibition, sulforhodamine B (SRB) assay; format: cell-based, human; conditions: MCF7; three days incubation, serum containing medium
# [5] = test system: human tumor xenograft LXFL 529; assay: In vivo testing in nude mice bearing subcutaneous tumor xenograft; conditions: for activity rating: days 1-5, 8-9
# Protocol: Compound of Examples 1, 4, 6, 8, 9 and 10 were subjected to in vivo testing in nude mice bearing subcutaneously growing human tumor xenograft LXFL 529. The indigoid bisindole derivatives were applied intraperitoneally to the animals in doses and according to the schedule as described in Table 4.
# The experiments were run for 21 or 28 days. Anti-tumor activity was evaluated comparing the median tumor volume relative to control, expressed as %T/C, wherein T is the test group and C the vehicle control group. In Table 4, anti-tumor activity is given according to an activity rate scale.
# [6] = test system: LXFL 529L cells; assay: Cellular uptake into LXFL 529L cells; conditions: for distribution cellular organelles / distribution cytosol: 2 hours incubation
# Protocol: The compounds of Examples 1, 6 and 8 and Comparative Examples 1 and 2 were investigated with respect to their ability to penetrate LXFL 529L cells having the passage numbers P23 to P39. The amounts of the substances taken up by the cells are given depending on the concentration of the substance within the incubation medium. The time of incubation was 2 hours in all of the experiments. Furthermore, the distribution of the substance which was taken up by the cells in the cytosol and the cellular organelles (particular) was estimated and is given in the intermediate column of Table 2. Tumor cell growth inhibition was determined by the sulfo-rhodamine B assay (SRB assay) according to Skehan et al., J. Natl. Cancer Institute 82, pages 1107-1112 (1990). Incubation was conducted for three days in serum containing medium. Tumor cell lines tested were a large-cell lung carcinoma xenograft line LXFL 529 L and the mammary carcinoma line MCF-7.
# [7] = cited from earlier work
# [8] = test system: OVXF1353 (ovarian); assay: Colony-forming assay; format: cell-based, human
# Protocol: The anti-tumor activity of the compounds was evaluated via a colony-forming-assay as described e.g. by D. P. Berger et al. in Annals of Oncology 1, pages 333-341 (1 990), “The clonongenic assay with human tumor xenografts, evaluation, predictive values and application for drug screening”.
# The experiments were conducted using various tumor cell lines, in particular mammary carcinoma (MAXF), lung adenocarcinoma (LXFA), large-cell lung carcinoma (LXFL), small-cell lung carcinoma (LXFS), colon carcinoma (CXF), melanoma (MEXF), pancreatic carcinoma (PAXF), renal carcinoma (RXF), ovarian carcinoma (OVXF) and bladder carcinoma (BXF).
# [9] = test system: large-cell lung carcinoma xenograft line LXFL 529 L; assay: Tumor cell growth inhibition, sulforhodamine B (SRB) assay; format: cell-based, human; conditions: LXFL529L; three days incubation, serum containing medium
# [10] = read-out: IC50 colony formation
# [11] = concentration of incubation 10 μM
# [12] = concentration of incubation 20 μM
smiles,measurement,setting,value
"O=C1Nc2ccccc2/C1=C1/Nc2ccccc2C1=O [Example 1, Indirubin]",IC70 colony formation,[1],6.0 µM
same,IC50,[1]; [10],2 µM
same,IC70 colony formation,[2],35.6 µM
same,IC50,[2]; [10],25.3 µM
same,IC70 colony formation,[3],>30 µM
same,IC50,[3]; [10],5.4 µM
same,IC50,[4],4 ± 2 µM
same,activity rating,[5]; 100 mg/kg/day i.p.,+ (tumor inhibition T/C > 25-50%)
same,activity rating,[5]; 200 mg/kg/day i.p.,++ (tumor stasis T/C ≦ 25%)
same,tumor growth (relative tumor volume) compared to the vehicle control (in words),"[5]; LXFL 529/17, i.p., nude mice, FIG. 1",significantly inhibited the tumor growth
same,uptake by the tumor cells (in words),[6]; LXFL 529L cells,taken up by the tumor cells
same,distribution cellular organelles,[6]; [11],93 ± 5.7%
same,distribution cytosol,[6]; [11],7 ± 5.7%
same,distribution cellular organelles,[6]; [12],94 ± 1.4%
same,distribution cytosol,[6]; [12],6 ± 1.4%
same,solubility in water (in words),[7],dissolves only poorly in water
same,IC70 colony formation,[8],>30 µM
same,IC50,[8]; [10],12.3 µM
same,IC50,[9],9.9 ± 0.1 µM
